# According to US5140102A, “Pentadecapeptide, guanylin, which stimulates intestinal guanylate cyclase” (Monsanto Company, priority 1991, dated 1992):
# Positions of bridges follow the written chain, without caps; N, C: chain ends. Residues, ends and D or L forms follow the SMILES beside them.
# Tests used:
# [1] = molecular target: T1, intestinal guanylate cyclase (Homo sapiens, UniProt P25092); experiment: Cyclic GMP determination in T84 cells (bioassay); type: cell-based
# T1 construct: Monolayers of T84 cells in 24-well plates were washed twice; host or cells: T84 human colon carcinoma cells
# T1 sequence (P25092 24-1073): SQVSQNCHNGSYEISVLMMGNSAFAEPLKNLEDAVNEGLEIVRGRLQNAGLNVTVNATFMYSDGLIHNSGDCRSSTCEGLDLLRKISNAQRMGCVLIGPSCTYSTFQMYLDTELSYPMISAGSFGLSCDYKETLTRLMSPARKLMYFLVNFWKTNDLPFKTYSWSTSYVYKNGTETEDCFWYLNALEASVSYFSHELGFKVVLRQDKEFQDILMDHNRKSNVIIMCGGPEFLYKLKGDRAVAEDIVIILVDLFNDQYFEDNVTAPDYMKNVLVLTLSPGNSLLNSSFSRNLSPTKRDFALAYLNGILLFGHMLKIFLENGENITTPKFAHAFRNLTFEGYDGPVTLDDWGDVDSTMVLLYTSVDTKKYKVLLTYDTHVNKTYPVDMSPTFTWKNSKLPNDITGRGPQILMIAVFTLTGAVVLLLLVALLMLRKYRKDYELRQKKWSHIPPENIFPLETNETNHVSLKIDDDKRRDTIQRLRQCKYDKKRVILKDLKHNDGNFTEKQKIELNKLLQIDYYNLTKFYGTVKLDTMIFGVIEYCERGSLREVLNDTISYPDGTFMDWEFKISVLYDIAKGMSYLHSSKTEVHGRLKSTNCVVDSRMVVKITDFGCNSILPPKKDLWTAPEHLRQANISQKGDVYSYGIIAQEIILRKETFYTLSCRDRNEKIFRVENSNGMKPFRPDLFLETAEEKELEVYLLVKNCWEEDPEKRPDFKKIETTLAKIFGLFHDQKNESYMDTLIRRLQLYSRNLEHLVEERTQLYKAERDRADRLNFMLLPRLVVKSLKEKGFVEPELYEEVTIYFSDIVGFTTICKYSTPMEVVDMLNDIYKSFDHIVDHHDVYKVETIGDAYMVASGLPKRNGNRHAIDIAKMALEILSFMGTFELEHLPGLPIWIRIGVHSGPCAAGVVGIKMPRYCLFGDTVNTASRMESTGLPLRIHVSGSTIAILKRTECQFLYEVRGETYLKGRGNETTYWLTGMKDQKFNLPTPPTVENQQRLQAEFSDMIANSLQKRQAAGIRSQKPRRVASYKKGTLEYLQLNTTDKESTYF
# [2] = system: proximal colon; details: read-out: EC50 for increase in Isc (X±S.E.); mucosal (luminal) addition, rat proximal colon, n=4 animals
smiles,measurement,setting,value
"O[C@H](CS)[C@H](O)CS (racemic) [DTT, dithiothreitol]",effect on responsiveness of the cells,[1]; T84 cells treated with 10 μM,failed to affect their responsiveness
CC[C@H](C)[C@@H]1NC(=O)[C@H](CCCNC(=N)N)NC(=O)[C@H](CC(=O)O)NC(=O)[C@H](CCSC)NC(=O)[C@H](CCCNC(=N)N)NC(=O)CNC(=O)CNC(=O)[C@H](Cc2ccccc2)NC(=O)[C@@H](NC(=O)[C@H](CO)NC(=O)[C@H](CO)NC(=O)[C@H](CCCNC(=N)N)NC(=O)[C@H](CCCNC(=N)N)NC(=O)[C@H](CC(C)C)NC(=O)[C@@H](N)CO)CSSC[C@@H](C(=O)N[C@@H](CC(N)=O)C(=O)N[C@@H](CO)C(=O)N[C@@H](Cc2ccccc2)C(=O)N[C@@H](CCCNC(=N)N)C(=O)N[C@@H](Cc2ccc(O)cc2)C(=O)O)NC(=O)CNC(=O)[C@H](CC(C)C)NC(=O)CNC(=O)[C@H](CO)NC(=O)[C@H](CCC(N)=O)NC(=O)[C@H](C)NC(=O)CNC1=O [atrial natriuretic peptide],effect on cyclic GMP levels,[1],not detected
"CC[C@H](C)[C@@H]1NC(=O)[C@H](CCC(=O)O)NC(=O)[C@@H](NC(=O)[C@@H](NC(=O)[C@H](CC(N)=O)NC(=O)[C@@H]2CCCN2)[C@@H](C)O)CSSC[C@@H]2NC(=O)[C@H](C)NC(=O)[C@H](C)NC(=O)[C@H](Cc3ccc(O)cc3)NC(=O)[C@H](C)NC(=O)[C@H](CSSC[C@@H](C(=O)O)NC(=O)CNC(=O)[C@H]([C@@H](C)O)NC2=O)NC1=O [guanylin] (H-PNTCEICAYAACTGC-OH; disulfide 4-12, 7-15)",EC50,[2],162 ± 26 nM
